Earlier results as cited in patent US20080311200A1, “Controlled Slow Release Formulation of Thiamine and Use Thereof in the Treatment of Pathologies Connected to Defective Process of Learning and Memorization” (BIOPROGRESS S.P.A., priority 2004, published 2008).

Test system: mechanism of active transport through the intestine wall

concentration above which the active transport of intestinal absorption reaches saturation: higher than 2 μM
Structure (SMILES): Cc1ncc(C[n+]2csc(CCO)c2C)c(N)n1 [thiamine]
